How the values were obtained:
SNB-19 = test: NCI DTP 60 cell line screen, SRB; conditions: for GI50 / CC50: Homo sapiens, SNB-19, 48 h; for CC50: read-out: LC50; for TGI: SNB-19 (CNS Cancer), 48 h, SRB
SK-MEL-28 = test: cells; conditions: Homo sapiens, SK-MEL-28, 48 h; for CC50: read-out: LC50
M14 = test: NCI DTP 60 cell line screen, SRB; conditions: for GI50 / CC50: Homo sapiens, M14, 48 h; for CC50: read-out: LC50; for TGI: M14 (Melanoma), 48 h, SRB
[1] = tested on: DLD-1 (human colon cancer); test: MTT cell viability assay; format: cell-based; conditions: DLD-1, MTT, 24 h
Description: (§1) In the second stage of the research, Ciminalum-thiazolidinone hybrids were investigated for antitumor activity on the lines of gastric cancer (AGS), human colon cancer (DLD-1), and breast cancers (MCF-7 and MDA-MB-231). The study was performed in the MTT assay according to the method described previously. The studied cancer line was sensitive to the action of the studied compounds that inhibited its growth in micromolar ranges of GI50. The hit compounds that inhibited the growth of all four cancer lines with the lowest GI50 values were [5-[2-chloro-3-(4-nitrophenyl)prop-2-enylidene]-rhodanines 2c, 2d, 2h, and 2i (Table 4).

[2] = tested on: MDA-MB-231 (breast cancer); test: MTT cell viability assay; format: cell-based; conditions: Homo sapiens; MDA-MB-231, MTT, 24 h
Description: as §1

MCF-7 (breast cancer) = test: MTT cell viability assay; format: cell-based; conditions: Homo sapiens, MCF7; MCF-7, MTT, 24 h
Description: as §1

AGS (gastric cancer) = test: MTT cell viability assay; format: cell-based; conditions: Homo sapiens, 24 h
Description: as §1

SN12C = SN12C (Renal Cancer), 48 h, SRB
HL-60(TB) = test: cells; conditions: Homo sapiens, HL-60, 48 h; for CC50: read-out: LC50
RPMI-8226 = test: cells; conditions: Homo sapiens, RPMI-8226, 48 h; for CC50: read-out: LC50
HCT-116 = HCT-116 (Colon Cancer), 48 h, SRB
A549/ATCC = test: cells; conditions: Homo sapiens, A549, 48 h; for CC50: read-out: LC50
SW-620 = test: cells; conditions: Homo sapiens, SW-620, 48 h; for CC50: read-out: LC50
LOX IMVI = test: cells; conditions: Homo sapiens, 48 h; for CC50: read-out: LC50
HOP-62 [3] = test: cells; conditions: Homo sapiens, HOP-62, 48 h; for CC50: read-out: LC50
NCI/ADR-Res = test: NCI DTP 60 cell line screen, SRB; conditions: 48 h; for GI50 / CC50: Homo sapiens, NCI/ADR-RES; for CC50: read-out: LC50; for TGI: NCI/ADR-Res (Breast Cancer), SRB
CAKI-1 = test: NCI DTP 60 cell line screen, SRB; conditions: for TGI: CAKI-1 (Renal Cancer), 48 h, SRB; for GI50 / CC50: Homo sapiens, CAKI-1, 48 h; for CC50: read-out: LC50
HOP-62 [4] = conditions: HOP-62 (Non-Small Cell Lung Cancer), 48 h, SRB
MCF-7 = test: NCI DTP 60 cell line screen, SRB; conditions: for GI50 / CC50: Homo sapiens, MCF7, 48 h; for CC50: read-out: LC50; for TGI: MCF-7 (Breast Cancer), 48 h, SRB
NCI-H460 = NCI-H460 (Non-Small Cell Lung Cancer), 48 h, SRB
T-47D = test: cells; conditions: Homo sapiens, T47D, 48 h; for CC50: read-out: LC50
SF-539 = test: NCI DTP 60 cell line screen, SRB; conditions: for GI50 / CC50: Homo sapiens, SF-539, 48 h; for CC50: read-out: LC50; for TGI: SF-539 (CNS Cancer), 48 h, SRB
SR = conditions: for TGI: SR (Leukemia), 48 h, SRB; for TI (Therapeutic Index): GI50 (normal blood lymphocyte)/GI50 (SR)
SNB-75 = SNB-75 (CNS Cancer), 48 h, SRB
U251 = U251 (CNS Cancer), 48 h, SRB

O=C1NC(=S)S/C1=C\C(Cl)=C\c1ccc([N+](=O)[O-])cc1 [Compound 2b, 5-[(Z,2Z)-2-Chloro-3-(4-nitrophenyl)-2-propenylidene]-2-thioxo-4-thiazolidinone]
GI50 (SNB-19): 8.1 µM
CC50 (SNB-19): > 50 µM
TGI (SNB-19): 21.4 µM
GI50 (SK-MEL-28): 5.87 µM
CC50 (SK-MEL-28): 25.9 µM
GI50 (M14): 8.87 µM
CC50 (M14): > 50 µM
TGI (M14): 32.2 µM
GI50 [1]: 8.39 µM
GI50 [2]: 10.6 µM
GI50 (MCF-7 (breast cancer)): 4.79 µM
GI50 (AGS (gastric cancer)): 7.86 µM
TGI (SN12C): 18.0 µM
GI50 (HL-60(TB)): 1.21 µM
CC50 (HL-60(TB)): > 50 µM
GI50 (RPMI-8226): 1.54 µM
CC50 (RPMI-8226): > 50 µM
TGI (HCT-116): 11.0 µM
GI50 (A549/ATCC): 8.18 µM
CC50 (A549/ATCC): > 50 µM
GI50 (SW-620): 1.94 µM
CC50 (SW-620): 23.5 µM
GI50 (LOX IMVI): 6.6 µM
CC50 (LOX IMVI): 36 µM
GI50 (HOP-62 [3]): 15.4 µM
CC50 (HOP-62 [3]): > 50 µM
GI50 (NCI/ADR-Res): 5.71 µM
CC50 (NCI/ADR-Res): > 50 µM
TGI (NCI/ADR-Res): 18.3 µM
TGI (CAKI-1): 25.2 µM
GI50 (CAKI-1): 7.14 µM
CC50 (CAKI-1): > 50 µM
TGI (HOP-62 [4]): 33.1 µM
GI50 (MCF-7): 2.14 µM
CC50 (MCF-7): > 50 µM
TGI (MCF-7): 38.0 µM
TGI (NCI-H460): 18.6 µM
GI50 (T-47D): 3.21 µM
CC50 (T-47D): > 50 µM
GI50 (SF-539): 9.39 µM
CC50 (SF-539): > 50 µM
TGI (SF-539): 23.1 µM
TGI (SR): 7.96 µM
TGI (SNB-75): 23.5 µM
TGI (U251): 9.73 µM

O=C1/C(=C/C(Cl)=C/c2ccc([N+](=O)[O-])cc2)SC(=S)N1/N=C\C(Cl)=C\c1ccc([N+](=O)[O-])cc1 [Compound 2c, 5-[(Z,2Z)-2-Chloro-3-(4-nitrophenyl)-2-propenylidene]-3-[(Z,2Z)-2-chloro-3-(4-nitrophenyl)-2-propenylideneamino]-2-thioxo-4-thiazolidinone]
GI50 (SNB-19): 48.3 µM
CC50 (SNB-19): > 100 µM
TGI (SNB-19): > 100 µM
GI50 (M14): 16.2 µM
CC50 (M14): 78.5 µM
TGI (M14): 35.7 µM
GI50 [1]: 6.34 µM
GI50 [2]: 1.59 µM
GI50 (MCF-7 (breast cancer)): 3.6 µM
GI50 (AGS (gastric cancer)): 4.43 µM
TGI (SN12C): > 100 µM
GI50 (HL-60(TB)): 5.32 µM
CC50 (HL-60(TB)): 87.2 µM
GI50 (RPMI-8226): 2.38 µM
CC50 (RPMI-8226): > 100 µM
TGI (HCT-116): 6.51 µM
GI50 (A549/ATCC): 18.9 µM
CC50 (A549/ATCC): 96.1 µM
GI50 (SW-620): 7.24 µM
CC50 (SW-620): > 100 µM
GI50 (LOX IMVI): 13 µM
CC50 (LOX IMVI): 63.8 µM
GI50 (HOP-62 [3]): 17.2 µM
CC50 (HOP-62 [3]): 91.9 µM
GI50 (NCI/ADR-Res): 6.55 µM
CC50 (NCI/ADR-Res): 61.7 µM
TGI (NCI/ADR-Res): 20.8 µM
TGI (CAKI-1): 11.2 µM
GI50 (CAKI-1): 3.11 µM
CC50 (CAKI-1): > 100 µM
TGI (HOP-62 [4]): 39.7 µM
GI50 (MCF-7): 4.08 µM
CC50 (MCF-7): 83.7 µM
TGI (MCF-7): 19.8 µM
TGI (NCI-H460): 32.3 µM
GI50 (T-47D): 24.5 µM
CC50 (T-47D): > 100 µM
GI50 (SF-539): 25.9 µM
CC50 (SF-539): > 100 µM
TGI (SF-539): 57.4 µM
TGI (SR): 12.0 µM
TGI (U251): 24.5 µM

O=C1/C(=C/C(Cl)=C/c2ccc([N+](=O)[O-])cc2)SC(=S)N1c1ccc(O)cc1 [Compound 2f, 5-[(Z,2Z)-2-Chloro-3-(4-nitrophenyl)-2-propenylidene]-3-(4-hydroxyphenyl)-2-thioxo-4-thiazolidinone]
GI50 (SNB-19): 10 µM
CC50 (SNB-19): 97.5 µM
TGI (SNB-19): 32.0 µM
GI50 (SK-MEL-28): 4.49 µM
CC50 (SK-MEL-28): > 100 µM
GI50 (M14): 1.9 µM
CC50 (M14): 7.32 µM
TGI (M14): 3.73 µM
TGI (SN12C): 4.41 µM
GI50 (HL-60(TB)): 0.485 µM
CC50 (HL-60(TB)): > 100 µM
GI50 (RPMI-8226): < 0.01 µM
CC50 (RPMI-8226): > 100 µM
TGI (HCT-116): 2.96 µM
GI50 (A549/ATCC): 2.25 µM
CC50 (A549/ATCC): > 100 µM
GI50 (SW-620): 0.037 µM
CC50 (SW-620): > 100 µM
GI50 (LOX IMVI): 1.17 µM
CC50 (LOX IMVI): > 100 µM
GI50 (HOP-62 [3]): 2.61 µM
CC50 (HOP-62 [3]): 11.6 µM
GI50 (NCI/ADR-Res): 2.17 µM
CC50 (NCI/ADR-Res): > 100 µM
TGI (NCI/ADR-Res): 6.13 µM
TGI (CAKI-1): > 100 µM
GI50 (CAKI-1): 4.44 µM
CC50 (CAKI-1): > 100 µM
TGI (HOP-62 [4]): 5.22 µM
GI50 (MCF-7): 0.401 µM
CC50 (MCF-7): > 100 µM
TGI (MCF-7): 28.0 µM
TGI (NCI-H460): > 100 µM
GI50 (T-47D): 1.55 µM
CC50 (T-47D): > 100 µM
GI50 (SF-539): 0.0252 µM
CC50 (SF-539): 28.1 µM
TGI (SF-539): 0.242 µM
TI (Therapeutic Index) (SR): >10,000
TGI (SR): 0.138 µM
TGI (SNB-75): > 100 µM
TGI (U251): 3.06 µM

O=C(O)C(Cc1ccccc1)N1C(=O)/C(=C/C(Cl)=C/c2ccc([N+](=O)[O-])cc2)SC1=S (stereo not shown) [Compound 2j, 2-{5-[(Z,2Z)-2-Chloro-3-(4-nitrophenyl)-2-propenylidene]-4-oxo-2-thioxothiazolidin-3-yl}-3-phenylpropanoic acid]
GI50 (SNB-19): 1.85 µM
CC50 (SNB-19): > 100 µM
TGI (SNB-19): > 100 µM
GI50 (SK-MEL-28): 2.16 µM
CC50 (SK-MEL-28): 11.6 µM
GI50 (M14): 2.53 µM
CC50 (M14): > 100 µM
TGI (M14): > 100 µM
TGI (SN12C): > 100 µM
GI50 (RPMI-8226): 3.22 µM
CC50 (RPMI-8226): > 100 µM
TGI (HCT-116): 5.47 µM
GI50 (A549/ATCC): 3.46 µM
CC50 (A549/ATCC): > 100 µM
GI50 (SW-620): 2.1 µM
CC50 (SW-620): > 100 µM
GI50 (LOX IMVI): 1.64 µM
CC50 (LOX IMVI): 6.46 µM
GI50 (HOP-62 [3]): 2.31 µM
CC50 (HOP-62 [3]): > 100 µM
TGI (CAKI-1): 5.09 µM
GI50 (CAKI-1): 2.28 µM
CC50 (CAKI-1): 16.7 µM
TGI (HOP-62 [4]): 6.75 µM
GI50 (MCF-7): 2.38 µM
CC50 (MCF-7): > 100 µM
TGI (MCF-7): 10.7 µM
TGI (NCI-H460): > 100 µM
GI50 (T-47D): 1.5 µM
CC50 (T-47D): > 100 µM
GI50 (SF-539): 2.74 µM
CC50 (SF-539): > 100 µM
TGI (SF-539): > 100 µM
TI (Therapeutic Index) (SR): 19.99
TGI (SR): > 100 µM
TGI (SNB-75): 5.37 µM
TGI (U251): 3.52 µM

Source: publication PMC8161026, “Synthesis and Anticancer Activity Evaluation of 5-[2-Chloro-3-(4-nitrophenyl)-2-propenylidene]-4-thiazolidinones” (Molecules, 2021)
